Results published in paper PMC9732821, “Neurotrophic Activity and Its Modulation by Zinc Ion of a Dimeric Peptide Mimicking the Brain-Derived Neurotrophic Factor N-Terminal Region” (ACS Chemical Neuroscience, 2022).

Key:
[1] = far-UV CD spectra and Zn^2+ titration; type: physicochemical; details: water, 298 K, pH 7.4, wide minimum around 200 nm
Protocol: Figure 5 Evaluation of Zn^2+ ion binding on d-bdnf. (A,B) Deconvoluted ESI mass spectra of 10^–6 M d-bdnf solutions incubated in water 2 h, 37 °C in the presence of a 100-fold excess of Zn^2+. 0.1% of formic acid was added (A) or not (B) just before the infusion. (C) Far-UV CD spectra at pH 7.4 for titration with Zn^2+ of d-bdnf (the black curve is the spectrum of peptide; red, green, blue, cyano, and gray are spectra of peptide after the addition of increasing equivalents of metal ions. (D) Spectral changes as a function of zinc addition monitored at λ = 222 nm. [d-bdnf] = 1 × 10^–5 M. (E) Most representative conformation for the BDNF(1–12) dimer coordinating Zn(II) metal ion. Carbon atoms are shown in silver, nitrogen atoms are reported in blue, oxygen atoms in red, sulfur atoms are represented in yellow, and Zn atom is reported in orange. The secondary structure of the peptide is represented in green.
Far-UV CD spectra were obtained at 298 K under a constant flow of nitrogen by using a Jasco model 810 spectropolarimeter. […]
Potentiometric titrations were carried out on a Titrando 905 automatic, using a combined glass-Ag/AgCl electrode (Metrohm, Switzerland). […] To avoid systematic errors and verify reproducibility, the EMF values of each experiment were recorded at different time intervals. The data were analyzed by using HYPERQUAD 2003 program 17. […]

[2] = tested on: SH-SY5Y cells; assay: neurite outgrowth of differentiated SH-SY5Y cells; type: cell-based, human; details: 3 days after 5 days retinoic acid
Protocol: Figure 3 Neurite outgrowth stimulated by BDNF and its mimetic peptide ligands. (A) Top, left: schematic timeline of the experiment. SH-SY5Y cells were differentiated for 5 days (d1–5) by addition of retinoic acid (RA, gray bar) in the cell medium. Then, cells were stimulated for 3 days (d6–8) with 150 ng/mL BDNF or different concentrations of its peptide-mimetics (black bar) or left untreated (white bar). On the right and bottom, representative images of the differentiated cells at the end of each treatment. Scale bar 50 μm. (B) Scatter dot plot of the total neurite length, normalized to the number of cell bodies present in each analyzed field. […] For each field, an average of 50–200 cells were counted. […] (C) Representative fluorescence images of DIV3 Ren cells stained with DAPI (blue) and β3-tubulin (green) after differentiation with the standard medium (CTRL), or with the standard medium supplemented with 50 ng/mL BDNF or with 1 μM d-bdnf. […] (D) Column plot of the mean ± SD fraction of β3-tubulin (green) positive on the total cells, counted in the DAPI channel of the analyzed fields (nfields) (CTRL: nfields = 10 and total ncells = 4756; BDNF: nfields = 11 and total ncells = 4330; d-bdnf: nfields = 10 and total ncells = 5619 cells; ****p < 0.0001, *p < 0.05 according to the one-way ANOVA with Dunnett’s multiple comparison test). […]

With “HSDPARRGELSVC-C-VSLEGRRAPDSH (disulfide) [d-bdnf]” the “conformation by far-UV CD” value [1] was “predominantly a random coil conformation”, the neurite network ([2]; 1 and 5 μM, compared with BDNF 150 ng/mL) was “able to elicit a neurite network similar to that raised by nM concentrations of BDNF” and the neurite network ([2]; higher doses (10 μM)) was “not able to produce the same effect”.
